Consider three molecules from patent US20220315624A1, “THIOSTREPTON ANALOGS AND METHODS OF MAKING AND USING SAME” (YALE UNIVERSITY, priority 2019, published 2022).

Molecules are shown by their SMILES. Converted amounts (≈) assume the structure as drawn. Where two headings read alike, the source gives them in different places. Where only a bound is given, the exact number is not on record here.

One data set relates to E. faecium MMX 485 VRE. The experiment in a line: MIC broth microdilution. The following applies: Enterococcus faecium. It counts as cell-based. As for the experimental part: (§1) Twenty-four test agents were shipped to Micromyx and stored at −20° C. until assayed. The compounds were dissolved in 100% DMSO at 6.46 mg/mL prior to testing. Comparator drugs were supplied by Micromyx and were handled as described below:
(§2) The test organisms for the assay were recent clinical isolates or reference strains acquired from the American Type Culture Collection (ATCC; Manassas, Va.). Upon receipt, the isolates were streaked onto Trypticase Soy Agar II+5% sheep blood (TSAB). Colonies were harvested from the plates and a cell suspension was prepared in Trypticase Soy Broth containing cryoprotectant. Aliquots were then frozen at −80° C. Prior to the assay, the frozen seeds of all bacterial isolates to be tested were thawed and streaked for isolation onto TSAB (BD/BBL, Sparks, Md.; Lot No. 9011894), and were incubated overnight at 35° C.
(§3) The test medium for all isolates was cation-adjusted Mueller Hinton broth (CAMHB; BD/BBL; Lot No. 8190586). CAMHB (Cation Adjusted Mueller Hinton Broth) was supplemented with 3% (v/v) lysed horse blood (LHB; Hemostat, Dixon, Calif.; Lot No. 474990) for the testing of streptococci.
(§4) MIC values were determined using a broth microdilution method as recommended by CLSI. Automated liquid handlers (Multidrop 384, Labsystems, Helsinki, Finland; Biomek 2000 and Biomek F/X, Beckman Coulter, Fullerton Calif.) were used to conduct serial dilutions and make liquid transfers.
(§5) The wells of standard 96-well microdilution plates (Costar 3795, Corning Inc., Corning, N.Y.) were filled with 150 μL of the appropriate diluent in columns 2-12 on the Multidrop 384 (DMSO for the thiostrepton analogs, deionized H2O for vancomycin and ceftazidime). These plates were used to prepare the drug “mother plate” which provided the serial drug dilutions for the replicate “daughter plates”. The compounds (300 μL) were dispensed at 101× the highest concentration to be tested into the appropriate row of the “mother plate”. The Biomek 2000 was used to transfer 150 μL of each stock solution from the wells in Column 1 of the mother plate to make ten subsequent 2-fold serial dilutions. The wells of Column 12 contained no drug and served as the organism growth control wells. The daughter plates were loaded with 190 μL of test medium using the Multidrop 384.
(§6) The daughter plates were prepared on the Biomek F/X instrument which transferred […] of drug solution from each well of the mother plate to each corresponding well of each daughter plate in a single step. The wells of the daughter plates ultimately contained 190 μL of media, 2 μL of drug solution, and 10 μL of inoculum prepared as described below. The final concentration of DMSO (if used as a solvent) in the test well was 1%.
(§7) A standardized inoculum of each organism was prepared per CLSI methods. A suspension of organisms from a fresh plate was prepared in CAMHB to equal the turbidity of a 0.5 McFarland standard. The suspensions were diluted 1:20 in CAMHB, or in the case of streptococci CAMHB with LHB. The inoculum for each organism was dispensed into sterile reservoirs divided by length (Beckman Coulter), and the Biomek 2000 was used to inoculate the plates. Daughter plates were placed on the Biomek 2000 work surface reversed so that inoculation took place from low to high drug concentration. The Biomek 2000 delivered 10 μL of standardized inoculum into each well. These dilutions yielded a final cell concentration in the daughter plates of approximately 5.0×10^5 CFU/mL.
(§8) Plates were stacked 3 high, covered with a lid on the top plate, placed in plastic bags, and incubated at 35° C. for 16-20 hr for all organisms except streptococci which were incubated for 20-24 hr. Following incubation, the microplates were removed from the incubator and viewed from the bottom using a plate viewer. The MIC was read and recorded as the lowest concentration of drug that inhibited visible growth of the organism. […]
(In general: In broth dilution the organism is exposed to a series of concentrations in liquid medium.)

For data set [1], the system named is E. faecalis ATCC 29212 VSE. Put plainly: MIC broth microdilution. Format: cell-based. Particulars: Enterococcus faecalis, ATCC29212. As for the experimental part: as §1, §2, §3, §4, §5, §6, §7, §8
Data set [2] concerns S. aureus ATCC 29213 MSSA. The experiment in a line: MIC broth microdilution. It counts as cell-based. Particulars: Staphylococcus aureus. As for the experimental part: as §1, §2, §3, §4, §5, §6, §7, §8
A further data set has as its system E. coli ATCC 25922. Put plainly: MIC broth microdilution. Format: cell-based. The following applies: Escherichia coli, ATCC25922. The method, then: as §1, §2, §3, §4, §5, §6, §7, §8
Another data set has as its system E. faecalis MMX 486 VRE. Put plainly: MIC broth microdilution. Format: cell-based. Particulars: Enterococcus faecalis. The method, then:
as §1, §2, §3, §4, §5, §6, §7, §8

Data set [3] relates to S. pneumoniae ATCC 49619 PISP. Put plainly: MIC broth microdilution. Particulars: Streptococcus pneumoniae, ATCC49619, 20 h. Format: cell-based. As for the experimental part:
as §1, §2, §3, §4, §5, §6, §7, §8

For a further data set, the system named is E. faecium MMX 708 VSE. The experiment in a line: MIC broth microdilution. It counts as cell-based. The following applies: Enterococcus faecium, MMX708VSE. The method, then: as §1, §2, §3, §4, §5, §6, §7, §8
The test system of another data set is S. pyogenes ATCC 19615. The experiment in a line: MIC broth microdilution. It counts as cell-based. Particulars: Streptococcus pyogenes, ATCC19615, 20 h. The method, then:
as §1, §2, §3, §4, §5, §6, §7, §8

For a further data set, the system named is S. aureus MMX 8088 MRSA. Put plainly: MIC broth microdilution. The following applies: Staphylococcus aureus. Format: cell-based. As for the experimental part: as §1, §2, §3, §4, §5, §6, §7, §8
The nature of data set [4]: Un-inoculated solubility control plate (drug precipitation). Format: physicochemical.
Setting [5] is: E. faecium MMX 485 VRE, CAMHB, read-out: MIC.
Setting [6] is: E. faecalis ATCC 29212 VSE, CAMHB, read-out: MIC.
The mark [7] stands for this setting: S. aureus ATCC 29213 MSSA, CAMHB, read-out: MIC.
The mark [8] stands for this setting: E. coli ATCC 25922, CAMHB, read-out: MIC.
The mark [9] stands for this setting: E. faecalis MMX 486 VRE, CAMHB, read-out: MIC.
Setting [10] is: S. pneumoniae ATCC 49619 PISP, CAMHB with 3% lysed horse blood, read-out: MIC.
Where [11] appears, read: E. faecium MMX 708 VSE, CAMHB, read-out: MIC.
[12] abbreviates: S. pyogenes ATCC 19615, CAMHB with 3% lysed horse blood, read-out: MIC.
Where [13] appears, read: S. aureus MMX 8088 MRSA, CAMHB, read-out: MIC.

The MIC is the lowest concentration found to suppress growth.

On to `C=C(NC(=O)c1csc(C2=N[C@@H]3c4csc(n4)[C@H]4NC(=O)c5csc(n5)[C@H]([C@](C)(O)[C@@H](C)O)NC(=O)C5CSC(=N5)/C(=C/C)NC(=O)[C@H]([C@@H](C)O)NC(=O)c5csc(n5)[C@]3(CC2)NC(=O)[C@H](C)NC(=O)C(=C)NC(=O)[C@H](C)NC(=O)[C@H]([C@@H](C)CC)N[C@@H]2C=Cc3c([C@H](C)O)cc(nc3[C@H]2O)C(=O)O[C@@H]4C)n1)C(=O)NC(=CNC(=O)c1ccc(OC)cc1)C(N)=O` [RJS-07], for which the MIC against E. faecium MMX 485 VRE (VRE) was 1 µg/mL (≈ 0.551 µM); in [1] it was 2 µg/mL (≈ 1.1 µM); in [2], 1 µg/mL (≈ 0.551 µM); in the data set on E. coli ATCC 25922 it was more than 64 µg/mL; with E. faecalis MMX 486 VRE (VRE), 1 µg/mL (≈ 0.551 µM); in [3] it was 0.004 µg/mL (≈ 0.0022 µM). Also, the MIC amounted to 1 µg/mL (≈ 0.551 µM) against E. faecium MMX 708 VSE, 0.004 µg/mL (≈ 0.0022 µM) against S. pyogenes ATCC 19615 and 2 µg/mL (≈ 1.1 µM) with S. aureus MMX 8088 MRSA (MRSA).
As for `C=C(NC(=O)c1csc(C2=N[C@@H]3c4csc(n4)[C@H]4NC(=O)c5csc(n5)[C@H]([C@](C)(O)[C@@H](C)O)NC(=O)C5CSC(=N5)/C(=C/C)NC(=O)[C@H]([C@@H](C)O)NC(=O)c5csc(n5)[C@]3(CC2)NC(=O)[C@H](C)NC(=O)C(=C)NC(=O)[C@H](C)NC(=O)[C@H]([C@@H](C)CC)N[C@@H]2C=Cc3c([C@H](C)O)cc(nc3[C@H]2O)C(=O)O[C@@H]4C)n1)C(=O)NC(=CNC(=O)c1cccc(/C=N/OC(C)(C)C(=O)O)c1)C(N)=O` [RJS-13], the MIC in the data set on E. faecium MMX 485 VRE (setting [5]) is 1 µg/mL (≈ 0.523 µM); in data set [1] (setting [6]), 2 µg/mL (≈ 1.05 µM); in data set [2] (setting [7]), 1 µg/mL (≈ 0.523 µM); in the data set with E. coli ATCC 25922 (setting [8]), more than 64 µg/mL; in the data set with E. faecalis MMX 486 VRE (setting [9]), 1 µg/mL (≈ 0.523 µM); in data set [3] (setting [10]), 0.015 µg/mL (≈ 0.00784 µM). For the same molecule, the MIC with E. faecium MMX 708 VSE (setting [11]) worked out at 1 µg/mL (≈ 0.523 µM); in the data set with S. pyogenes ATCC 19615 (setting [12]), 0.015 µg/mL (≈ 0.00784 µM); with S. aureus MMX 8088 MRSA (setting [13]) it was 1 µg/mL (≈ 0.523 µM).
On to `C=C(NC(=O)c1csc(C2=N[C@@H]3c4csc(n4)[C@H]4NC(=O)c5csc(n5)[C@H]([C@](C)(O)[C@@H](C)O)NC(=O)C5CSC(=N5)/C(=C/C)NC(=O)[C@H]([C@@H](C)O)NC(=O)c5csc(n5)[C@]3(CC2)NC(=O)[C@H](C)NC(=O)C(=C)NC(=O)[C@H](C)NC(=O)[C@H]([C@@H](C)CC)N[C@@H]2C=Cc3c([C@H](C)O)cc(nc3[C@H]2O)C(=O)O[C@@H]4C)n1)C(=O)NC(=CNC(=O)c1ccc(Br)cc1)C(N)=O` [RJS-08], for which the “Precipitation in CAMHB” value in [4] (at 64 μg/mL in CAMHB) was “distinct precipitation”. The “Precipitation in CAMHB in LHB” value in data set [4] (at 64 μg/mL in CAMHB in LHB) is reported as “distinct precipitation”. Further, the MIC in the data set with E. faecium MMX 485 VRE (setting [5]) was 0.5 µg/mL (≈ 0.268 µM); in [1] (setting [6]), 0.5 µg/mL (≈ 0.268 µM); in data set [2] (setting [7]), 1 µg/mL (≈ 0.537 µM); in the data set with E. coli ATCC 25922 (setting [8]), more than 64 µg/mL; in the data set with E. faecalis MMX 486 VRE (setting [9]) it was 0.5 µg/mL (≈ 0.268 µM); in data set [3] (setting [10]), less than 0.001 µg/mL. For the same molecule, the MIC in the data set on E. faecium MMX 708 VSE (setting [11]) came out at 0.5 µg/mL (≈ 0.268 µM); in the data set with S. pyogenes ATCC 19615 (setting [12]), 0.002 µg/mL (≈ 0.00107 µM); in the data set on S. aureus MMX 8088 MRSA (setting [13]), 1 µg/mL (≈ 0.537 µM).
